This note sets out measurements from patent publication EP4650362A1, “NEUROPROTECTIVE PSD-95 POLYPEPTIDE INHIBITOR AND USE THEREOF” (Beijing Tuo Jie Biopharmaceutical Co. Ltd., priority 2023, dated 2024).

Series [1] is described as follows: plasma stability test, human plasma. Type of series: in vitro ADME. As to conditions: for Relative remaining compound content (%): 0min (standard 100%). As to the method: Solution preparation: An appropriate amount of a test polypeptide compound was weighed out and dissolved in an appropriate amount of 1× PBS to form a 1 mM test solution. NA-1 and NoNO42 were used as positive drugs, propantheline bromide was used as a human plasma test control, and lovastatin was used as a rat plasma test control. Plasma stability test: 12.5 µL of the 1 mM test solution was added to a 495 µL pre-incubated plasma sample. […] For each incubation time, two parallel samples were set. Subsequently, 200 µL of stop solution was added to stop the incubation, and the mixtures were vortexed for 5 min. Then the mixtures were centrifuged at 10,000 rpm at 4 °C for 10 min to remove the protein in the sample, and 70 µL of the supernatant was transferred to a new 96-well plate (70 µL of water was added to each well beforehand) and well mixed. […] Sample pretreatment: […] LC-MS analysis: […] (2) Mass-spectrometric conditions: The mass spectrometry analysis used an electrospray ionization (ESI) source, a positive ion analysis mode, and a multi-reaction monitoring (MRM) scan mode. […] The plasma stability of the polypeptide compound

Series [2] in a line: pharmacokinetic study in rats, single intravenous bolus injection. The format is in vivo, SD rats. The following applies: for Cmax: read-out: Cmax. Here is the method: With male SD rats as test animals, the pharmacokinetic behavior of polypeptide compounds administered via single intravenous bolus injection in rats (plasma) was studied.
Male SD rats weighing 170 to 200 grams and aged 4-6 weeks were purchased from Beijing Vital River Laboratory Animal Technology Co., Ltd. The polypeptide compounds were dissolved in 1× PBS, and the polypeptide compound solutions were then administered via intravenous bolus injection over 10 min at a dose of 3 nmol/g, with three animals per group. At each of the time points of 2 min, 8 min, 15 min, 30 min, 45 min, 60 min, and 120 min after the end of bolus injection, 0.2 mL of blood was collected and transferred to an EDTA-K2 anticoagulation centrifuge tube. The whole blood sample was centrifuged at 4 °C at 4000 g for 5 min, and a plasma sample was obtained by separation and cryopreserved at -80 °C.
The pharmacokinetic parameters of polypeptide compound 22, administered via intravenous bolus injection, in rats were determined using a similar method, with the difference being that an enzyme inhibitor was added immediately after blood collection.
The plasma concentrations of the test compounds were determined using the method in Test Example 3.4.3. Plasma concentration-time curves were plotted, and the pharmacokinetic parameters were calculated using PKSolver software. The experimental results are shown in Table 5-1, Table 5-2, and FIG. 3.

The next series concerns the target T1, human PSD95-PDZ2 (Homo sapiens, UniProt P78352).
T1 construct: PDZ2 (155-249, the Flag-His-Avitag-TEVsite tag is italicized); made in house; host or cells: E. coli BL21-DE3 (PET vector)
In words: competitive ELISA, affinity for human PSD95-PDZ2. The format is binding. An excerpt:
The objective of this test example was to determine the affinities of polypeptide compounds for human PSD95-PDZ2 using competitive ELISAs.
The amino acid sequence of PDZ2 protein was designed using human PSD95 (Uniprot Entry: P78352) as a template for PDZ: PDZ2 (155-249, the Flag-His-Avitag-TEVsite tag is italicized and was subsequently used for purification and biotinylation): […]
[…] (SEQ ID NO. 62). The PDZ2 gene was constructed onto a PET expression vector, and induced expression was performed using BL21-DE3 E. coli cells under conditions of 37 °C and 1 mM IPTG 4 h. Then centrifugation was performed at 10,000 g at 4 °C for 10 min, and the cell pellets were collected, resuspended in 1× PBS solution, and then lysed using a homogenizer. The lysate was centrifuged at high speed, and the supernatant was collected and filtered through a 0.45 µm membrane. A Ni-Sepharose affinity column was equilibrated with 5 column volumes of a 20 mM phosphate buffer (pH 8.0). The sample was centrifuged at high speed to remove impurities and loaded onto the column for binding. The column was rinsed with the 20 mM phosphate buffer until the A280 reading dropped to the baseline. Gradient elution was then performed with the 20 mM phosphate buffer and 0-500 mM imidazole. A protein was collected, and whether it was the target protein was determined. The purified sample described above was buffer-exchanged into 1× PBS solution, and the resulting solution was concentrated to a volume of 2 mL and further purified using a Superdex200 gel chromatography column (GE) equilibrated with 1× PBS. The target peak was collected and aliquoted for later use.
PSD95-PDZ2 (the tag was removed by TEV enzyme) was diluted with 1× PBS buffer to 1 µg/mL, added to a 96-well microplate (Corning, 9018, 25/box 96-well clear flat bottom plate) at 100 µL/well, and left to stand overnight at 4 °C for 16-20 h. After the liquid was discarded, the plate was washed three times with PBST (pH 7.4, 0.05% Tween-20) buffer, and a 4% BSA blocking solution diluted with PBST buffer was then added (300 µL/well). The plate was blocked by incubation in an incubator at 37 °C for 1 h. After the blocking was complete, the blocking solution was discarded, and the plate was washed three times with PBST buffer. Biotin-NA-1, at a constant concentration of 0.3 µM, and the test compounds, having a starting concentration of 100 µM and serially diluted ten-fold with PBS buffer to seven concentrations (100, 10, 1, 0.1, 0.01, 0.001, 0.0001, and 0 µM), were then added, and the plate was incubated in an incubator at 37 °C for 1 h. After the incubation was complete, the reaction solutions in the microplate were discarded, and the plate was washed three times with PBST. 100 µL of HRP-SA secondary antibody (diluted at 1:2000) was added to each well, and the plate was incubated at 37 °C for 1 h. After the plate was washed three times with PBST, 100 µL of TMB chromogenic substrate was added. The plate was incubated at room temperature for 1-3 min, and 100 µL of 1 M sulfuric acid was added to stop the reaction.
The absorbance at 450 nm was measured using a SpectraMax M5 microplate reader, and non-linear fitting was performed using GraphPad Prism 9 to calculate the binding IC50 values of the test compounds to PSD95-PDZ2 protein.

Where [3] appears, read: Human plasma, 25 µM, 10min, read-out: Relative remaining compound content (%).
[4] abbreviates: Human plasma, 25 µM, 20min, read-out: Relative remaining compound content (%).
Setting [5] is: Human plasma, 25 µM, 30min, read-out: Relative remaining compound content (%).
Where [6] appears, read: Human plasma, 25 µM, 60min, read-out: Relative remaining compound content (%).
[7] abbreviates: Human plasma, 25 µM, 120min, read-out: Relative remaining compound content (%).
[8] abbreviates: male, SD, rat, plasma, rats, intravenous bolus injection over 10 min, 3 nmol/g, n = 3.
Setting [9] is: competitive ELISA against 0.3 µM Biotin-NA-1, error of this test within three times, read-out: IC50.
Where [10] appears, read: male, SD, rat, plasma, 3 nmol/g, rats, intravenous bolus injection, enzyme inhibitor added immediately after blood collection, n = 3.
[11] abbreviates: rats, intravenous bolus injection, enzyme inhibitor added (Table 5-2).

The structures appear in SMILES notation. pIC50: −log10 of the molar value. Read-outs that look alike come from different tables or passages of the source. Non-standard residues stand in square brackets, D forms with d. Residues, ends and D or L forms follow the SMILES beside them. Tle = CC(C)(C)[C@H](N)C(=O)O; Dab = NCC[C@H](N)C(=O)O; Aib = CC(C)(N)C(=O)O

For orientation: pIC50 means the negative decadic logarithm of the IC50, by convention in mol/L. `CC[C@H](C)[C@H](NC(=O)[C@H](CO)NC(=O)[C@H](CO)NC(=O)[C@H](CC(C)C)NC(=O)[C@@H](CCCCN)NC(=O)[C@H](CCCNC(=N)N)NC(=O)[C@H](CCCNC(=N)N)NC(=O)[C@@H](CCCNC(=N)N)NC(=O)[C@H](CCC(N)=O)NC(=O)[C@@H](CCCNC(=N)N)NC(=O)[C@H](CCCNC(=N)N)NC(=O)[C@H](CCCCN)NC(=O)[C@H](CCCCN)NC(=O)[C@@H](CCCNC(=N)N)NC(=O)CNC(=O)[C@@H](N)Cc1ccc(O)cc1)C(=O)N[C@@H](CCC(=O)O)C(=O)N[C@@H](CO)C(=O)N[C@@H](CC(=O)O)C(=O)N[C@H](C(=O)O)C(C)C` [NoNO42, YGrKKRrQrRRkLSSIESDV, reference compound] (H-YG[dR]KKR[dR]Q[dR]RR[dK]LSSIESDV-OH): in series [1] (human, plasma), the amount remaining at 10 min, 25 µM is 104%; the share remaining at 20 min, 25 µM is 104%; the share remaining at 0.5 h, 25 µM worked out at 107%; the amount remaining at 1 h, 25 µM turned out to be 99.3%. Moreover, the amount remaining at 2 h, 25 µM in series [1] (human, plasma) came to 107%. The half-life in series [2] (male, SD, rat, in vivo, iv) was 0.04 h. For the same compound, in series [2] (rat, in vivo, iv), the AUClast/dose came out at 25 and the half-lives entry is reported as “less than 3 min”. Also, the pIC50 at human PSD95-PDZ2 is 6.04.
For orientation: AUC(0-inf) means the area under the concentration-time curve extrapolated to infinity. Broadly, the MRT is the average time that molecules of a dose stay in the body. As usually defined, the AUC(0-t) is the area under the concentration-time curve up to a stated or last time point. The term Cmax denotes the peak of the concentration-time curve. `CC(C)[C@H](NC(=O)[C@H](CC(=O)O)NC(=O)[C@@H](NC(=O)[C@@H](NC(=O)[C@@H](NC(=O)[C@@H](NC(=O)[C@H](CCN)NC(=O)C(C)(C)NC(=O)CNC(=O)[C@@H](CCCNC(=N)N)NC(=O)[C@@H](CCCNC(=N)N)NC(=O)[C@@H](CCCNC(=N)N)NC(=O)[C@@H](CCC(N)=O)NC(=O)[C@@H](CCCNC(=N)N)NC(=O)[C@@H](CCCNC(=N)N)NC(=O)[C@@H](CCCCN)NC(=O)[C@@H](CCCCN)NC(=O)[C@@H](CCCNC(=N)N)NC(=O)CNC(=O)[C@H](N)Cc1ccc(O)cc1)[C@@H](C)O)C(C)(C)C)C(C)(C)C)[C@@H](C)O)C(=O)O` [Polypeptide compound 14, y-G-r-k-k-r-r-q-r-r-r-G-Aib-Dab-T-Tle-Tle-T-D-V] (H-[dY]G[dR][dK][dK][dR][dR][dQ][dR][dR][dR]G[Aib][Dab]T[Tle][Tle]TDV-OH): the “Relative remaining compound content (%)” value in series [1] (Human plasma, 25 µM) is reported as 100.0%. In addition, the fraction remaining at 10 min, 25 µM in series [1] (setting [3]) is 102%. Moreover, in series [1] (setting [4]), the share remaining at 20 min, 25 µM was found to be 101%. The fraction remaining at 0.5 h, 25 µM in series [1] (setting [5]) worked out at 97.3%. The fraction remaining at 1 h, 25 µM in series [1] (setting [6]) stood at 103%. Moreover, in series [1] (setting [7]), the amount remaining at 2 h, 25 µM was 105%. In series [2] (setting [8]), the AUC(0-inf) came to 9900 ng·h/mL, the MRT stood at 1.19 h and the Cmax was 15100 ng/mL. The AUC(0-t) in series [2] (male, SD, rat, plasma, rats, intravenous bolus injection over 10 min, 3 nmol/g, n = 3, read-out: AUC(0-t)) worked out at 7910 ng·h/mL. The half-life in series [2] (male, SD, rat, plasma, rats, intravenous bolus injection over 10 min, 3 nmol/g, n = 3, read-out: T1/2 (converted)) was 0.94 h. In addition, the AUClast/dose in series [2] (rats, intravenous bolus injection over 10 min, 3 nmol/g, n = 3) stood at 1041. Further, at human PSD95-PDZ2 (setting [9]), the pIC50 was 6.15.
Broadly, the Tmax is the time at which the peak concentration occurs. For the compound `CC(C)[C@H](NC(=O)[C@H](CC(=O)O)NC(=O)[C@@H](NC(=O)[C@@H](NC(=O)[C@@H](NC(=O)[C@@H](NC(=O)[C@H](CCN)NC(=O)C(C)(C)NC(=O)CNC(=O)[C@@H](CCCNC(=N)N)NC(=O)[C@H](CCCNC(=N)N)NC(=O)[C@H](CCCNC(=N)N)NC(=O)[C@H](CCC(N)=O)NC(=O)[C@@H](CCCNC(=N)N)NC(=O)[C@H](CCCNC(=N)N)NC(=O)[C@H](CCCCN)NC(=O)[C@H](CCCCN)NC(=O)[C@H](N)CCCNC(=N)N)[C@@H](C)O)C(C)(C)C)C(C)(C)C)[C@@H](C)O)C(=O)O` [Polypeptide compound 22, r-K-K-R-r-Q-R-R-r-G-Aib-Dab-T-Tle-Tle-T-D-V] (H-[dR]KKR[dR]QRR[dR]G[Aib][Dab]T[Tle][Tle]TDV-OH), the “Relative remaining compound content (%)” value in series [1] (Human plasma, 25 µM) was 100.0%. Moreover, in series [1] (setting [3]), the amount remaining at 10 min, 25 µM was determined as 99.5%. Besides, in series [1] (setting [4]), the amount remaining at 20 min, 25 µM came out at 97%. Further, in series [1] (setting [5]), the fraction remaining at 0.5 h, 25 µM was 104%. For the same compound, the amount remaining at 1 h, 25 µM in series [1] (setting [6]) stood at 98%. For the same compound, the amount remaining at 2 h, 25 µM in series [1] (setting [7]) was 90.1%. Further, in series [2] (male, SD, rat, in vivo, 3 nmol/g, rats, intravenous bolus injection, enzyme inhibitor added immediately after blood collection, n = 3), the AUC(0-inf) is 24300 ng·h/mL. In addition, in series [2] (setting [10]), the MRT came out at 1.77 h, the Tmax is 0.36 h and the peak concentration (Cmax) was 16900 ng/mL. Also, in series [2] (male, SD, rat, plasma, 3 nmol/g, rats, intravenous bolus injection, enzyme inhibitor added immediately after blood collection, n = 3, read-out: T1/2 (converted)), the half-life is 1.16 h. In addition, in series [2] (setting [11]), the “area under the curve (AUC) increase compared to NA-1” value is on record as 19.4 fold, the “half-life increase compared to NA-1” value stood at 29 fold and the “maximum plasma concentration (Cmax) increase compared to NA-1” value turned out to be 2.3 fold. In addition, in series [2] (rats, intravenous bolus injection, enzyme inhibitor added immediately after blood collection, n = 3), the AUClast/dose is recorded as 2239.6. Moreover, on human PSD95-PDZ2 (setting [9]), the pIC50 is 6.06.
